SMILES strings stand for the structures. Where only a bound is given, the exact number is not on record here.

The text below walks through data of patent publication US20110166121A1 (LG LIFE SCIENCES LTD., priority 2008, published 2011).

Experiment [1] relates to Human platelet aggregation caused by ADP. Description: Inhibition of ADP-induced platelet aggregation (Mimic-human PRP). Format: cell-based. Conditions: 20 μM ADP, human platelet concentrate diluted with PPP, absorption at 595 nm. In short, it runs like this:
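Ki came from non-linear sigmoidal fits of inhibition, measured as the 3-min rise in absorbance at 595 nm after 20 μM ADP, relative to 0/20 μM ADP controls. Platelets (3–4×10^8/mL in PPP-diluted human PRP) were exposed to 0.01–30 μM compound for 20 min at room temperature beforehand.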

The target of the next experiment is T1, Human P2Y12 receptor (Homo sapiens, UniProt Q9H244).
T1 construct: expressed in transfected cells; host or cells: HEK cells
Description: Human P2Y12 receptor cell membrane binding assay with [3H] 2-Mes-ADP. Conditions: 1 nM [3H] 2-Mes-ADP, membranes of HEK cells expressing P2Y12 receptor; read-out: Binding activity (IC50). In short, it runs like this: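 Competition binding used 1 nM [3H]2-MeS-ADP on P2Y12-expressing HEK cell membranes for 1 h at room temperature, followed by filtration and scintillation counting.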

T1 sequence (Q9H244 whole entry): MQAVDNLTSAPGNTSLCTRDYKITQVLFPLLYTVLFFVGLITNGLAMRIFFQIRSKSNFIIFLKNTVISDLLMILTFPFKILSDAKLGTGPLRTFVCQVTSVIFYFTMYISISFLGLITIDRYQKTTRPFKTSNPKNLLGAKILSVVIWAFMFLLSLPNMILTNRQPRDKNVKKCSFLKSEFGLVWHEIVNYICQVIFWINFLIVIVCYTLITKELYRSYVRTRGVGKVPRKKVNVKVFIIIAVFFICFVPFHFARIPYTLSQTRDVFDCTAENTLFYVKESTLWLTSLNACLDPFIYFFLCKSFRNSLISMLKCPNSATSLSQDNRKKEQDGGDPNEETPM

Take `CCCc1cc2c(N3CCn4c(nnc4C(F)(F)F)C3)nc(OCCc3cc(F)cc(F)c3F)nc2s1` [Example 3-21, 7-{6-Propyl-2-[2-(2,3,5-trifluoro-phenyl)-ethoxy]-thieno[2,3-d]pyrimidin-4-yl}-3-trifluoromethyl-5,6,7,8-tetrahydro-[1,2,4]triazolo[4,3-a]pyrazine]: the Ki in experiment [1] was 0.39 µM. Moreover, the IC50 at Human P2Y12 receptor was found to be 0.11 µM.

`CCCc1cc2c(N3CCn4c(nnc4C(F)(F)F)C3)nc(OCc3ccccn3)nc2s1` [Example 3-23, 7-[6-Propyl-2-(pyridin-2-ylmethoxy)-thieno[2,3-d]pyrimidin-4-yl]-3-trifluoromethyl-5,6,7,8-tetrahydro-[1,2,4]triazolo[4,3-a]pyrazine] gave a Ki in experiment [1] of over 4 µM. Also, the IC50 on Human P2Y12 receptor is 0.37 µM.

In the case of `CCCc1cc2c(N3CCn4c(nnc4C(F)(F)F)C3)nc(OCc3cccnc3)nc2s1` [Example 3-24, 7-[6-Propyl-2-(pyridin-3-ylmethoxy)-thieno[2,3-d]pyrimidin-4-yl]-3-trifluoromethyl-5,6,7,8-tetrahydro-[1,2,4]triazolo[4,3-a]pyrazine], in experiment [1], the affinity, expressed as Ki, was 1.48 µM. The half-inhibitory concentration (IC50) at Human P2Y12 receptor is 0.16 µM.

For the molecule `CCCc1cc2c(N3CCn4c(nnc4C(F)(F)F)C3)nc(OCc3ccncc3)nc2s1` [Example 3-25, 7-[6-Propyl-2-(pyridin-4-ylmethoxy)-thieno[2,3-d]pyrimidin-4-yl]-3-trifluoromethyl-5,6,7,8-tetrahydro-[1,2,4]triazolo[4,3-a]pyrazine], affinity in experiment [1] was put at a Ki of 0.93 µM. Besides, the half-maximal inhibitory concentration (IC50) at Human P2Y12 receptor was 0.17 µM.

`CCCc1cc2c(N3CCn4c(nnc4C(F)(F)F)C3)nc(OC3CNC3)nc2s1` [Example 3-26, 7-[2-(Azetidin-3-yloxy)-6-propyl-thieno[2,3-d]pyrimidin-4-yl]-3-trifluoromethyl-5,6,7,8-tetrahydro-[1,2,4]triazolo[4,3-a]pyrazine] registered a Ki in experiment [1] of 0.025 µM. Further, the IC50 on Human P2Y12 receptor came to 0.149 µM.

For the molecule `CCCc1cc2c(N3CCn4c(nnc4C(F)(F)F)C3)nc(O)nc2s1` [Example 3-27, 6-Propyl-4-(3-trifluoromethyl-5,6-dihydro-8H-[1,2,4]triazolo[4,3-a]pyrazin-7-yl)-thieno[2,3-d]pyrimidin-2-ol], the Ki in experiment [1] was found to be 8.8 µM. In addition, the IC50 at Human P2Y12 receptor amounted to 5.38 µM.

Molecule `CCCc1cc2c(N3CCn4c(nnc4C(F)(F)F)C3)nc(Oc3ccccc3)nc2s1` [Example 3-28, 7-(2-Phenoxy-6-propyl-thieno[2,3-d]pyrimidin-4-yl)-3-trifluoromethyl-5,6,7,8-tetrahydro-[1,2,4]triazolo[4,3-a]pyrazine] returned an inhibition constant Ki in experiment [1] of 9.7 µM. Besides, the IC50 at Human P2Y12 receptor was 0.179 µM.

Molecule `CCCc1cc2c(N3CCn4c(nnc4C(F)(F)F)C3)nc(Oc3cccnc3)nc2s1` [Example 3-29, 7-[6-Propyl-2-(pyridin-3-yloxy)-thieno[2,3-d]pyrimidin-4-yl]-3-trifluoromethyl-5,6,7,8-tetrahydro-[1,2,4]triazolo[4,3-a]pyrazine] registered an inhibitory constant (Ki) in experiment [1] of 0.15 µM. For the same molecule, the IC50 on Human P2Y12 receptor is 0.22 µM.

In turn, `CCCc1cc2c(N3CCn4c(nnc4C(F)(F)F)C3)nc(Oc3cccc(C(=O)OC)c3)nc2s1` [Example 3-30, 3-[6-Propyl-4-(3-trifluoromethyl-5,6-dihydro-8H-[1,2,4]triazolo[4,3-a]pyrazin-7-yl)-thieno[2,3-d]pyrimidin-2-yloxy]-benzoic acid methyl ester] gave a Ki in experiment [1] of over 4 µM. The 50% inhibitory concentration (IC50) on Human P2Y12 receptor stood at 0.28 µM.

The molecule `CCCc1cc2c(N3CCn4c(nnc4C(F)(F)F)C3)nc(Oc3cccc(C(=O)O)c3)nc2s1` [Example 3-31, 3-[6-Propyl-4-(3-trifluoromethyl-5,6-dihydro-8H-[1,2,4]triazolo[4,3-a]pyrazin-7-yl)-thieno[2,3-d]pyrimidin-2-yloxy]-benzoic acid] had a Ki in experiment [1] of 2 µM. Moreover, the IC50 on Human P2Y12 receptor came to 0.196 µM.

Turning to `CCCc1cc2c(N3CCn4c(nnc4C(F)(F)F)C3)nc(Oc3ccccc3C(=O)OC)nc2s1` [Example 3-32, 2-[6-Propyl-4-(3-trifluoromethyl-5,6-dihydro-8H-[1,2,4]triazolo[4,3-a]pyrazin-7-yl)-thieno[2,3-d]pyrimidin-2-yloxy]-benzoic acid methyl ester], the inhibition constant (Ki) in experiment [1] was over 4 µM. The IC50 on Human P2Y12 receptor amounted to 0.65 µM.

For the molecule `CCCc1cc2c(N3CCn4c(nnc4C(F)(F)F)C3)nc(Oc3ccccc3C(=O)O)nc2s1` [Example 3-33, 2-[6-Propyl-4-(3-trifluoromethyl-5,6-dihydro-8H-[1,2,4]triazolo[4,3-a]pyrazin-7-yl)-thieno[2,3-d]pyrimidin-2-yloxy]-benzoic acid], in experiment [1], the Ki is over 4 µM. Moreover, on Human P2Y12 receptor, the IC50 came to 2.22 µM.

`CCCc1cc2c(N3CCn4c(nnc4C(F)(F)F)C3)nc(Oc3ccc(C(=O)OC)cc3)nc2s1` [Example 3-34, 4-[6-Propyl-4-(3-trifluoromethyl-5,6-dihydro-8H-[1,2,4]triazolo[4,3-a]pyrazin-7-yl)-thieno[2,3-d]pyrimidin-2-yloxy]-benzoic acid methyl ester]: the Ki in experiment [1] was over 4 µM. Moreover, on Human P2Y12 receptor, the IC50 is 0.473 µM.

The molecule `CCCc1cc2c(N3CCn4c(nnc4C(F)(F)F)C3)nc(Oc3ccc(C(=O)O)cc3)nc2s1` [Example 3-35, 4-[6-Propyl-4-(3-trifluoromethyl-5,6-dihydro-8H-[1,2,4]triazolo[4,3-a]pyrazin-7-yl)-thieno[2,3-d]pyrimidin-2-yloxy]-benzoic acid] yielded a Ki in experiment [1] of 1.4 µM. The IC50 at Human P2Y12 receptor turned out to be 0.099 µM.

For the molecule `CCCc1cc2c(N3CCn4c(nnc4C(F)(F)F)C3)nc(Oc3ccccn3)nc2s1` [Example 3-36, 7-[6-Propyl-2-(pyridin-2-yloxy)-thieno[2,3-d]pyrimidin-4-yl]-3-trifluoromethyl-5,6,7,8-tetrahydro-[1,2,4]triazolo[4,3-a]pyrazine], the Ki in experiment [1] came to 0.94 µM. The IC50 at Human P2Y12 receptor was determined as 0.26 µM.

With `CCCc1cc2c(N3CCn4c(nnc4C(F)(F)F)C3)nc(Oc3cccc(C#N)c3)nc2s1` [Example 3-37, 3-[6-Propyl-4-(3-trifluoromethyl-5,6-dihydro-8H-[1,2,4]triazolo[4,3-a]pyrazin-7-yl)-thieno[2,3-d]pyrimidin-2-yloxy]-benzonitrile], in experiment [1], the Ki was 1.3 µM. Besides, on Human P2Y12 receptor, the IC50 came out at 0.198 µM.

In turn, `CCCc1cc2c(N3CCn4c(nnc4C(F)(F)F)C3)nc(Oc3ccc(C#N)cc3)nc2s1` [Example 3-38, 4-[6-Propyl-4-(3-trifluoromethyl-5,6-dihydro-8H-[1,2,4]triazolo[4,3-a]pyrazin-7-yl)-thieno[2,3-d]pyrimidin-2-yloxy]-benzonitrile] registered an inhibition constant (Ki) in experiment [1] of 2.2 µM. The 50% inhibitory concentration (IC50) at Human P2Y12 receptor came to 0.179 µM.

With `CCCc1cc2c(N3CCn4c(nnc4C(F)(F)F)C3)nc(Oc3ccc(CC(=O)OC)cc3)nc2s1` [Example 3-39, {4-[6-Propyl-4-(3-trifluoromethyl-5,6-dihydro-8H-[1,2,4]triazolo[4,3-a]pyrazin-7-yl)-thieno[2,3-d]pyrimidin-2-yloxy]-phenyl}-acetic acid methyl ester], in experiment [1], the affinity, expressed as Ki, was 2.4 µM. The IC50 at Human P2Y12 receptor was 0.3 µM.

In experiment [1], `CCCc1cc2c(N3CCn4c(nnc4C(F)(F)F)C3)nc(Oc3ccc(CC(=O)O)cc3)nc2s1` [Example 3-40, {4-[6-Propyl-4-(3-trifluoromethyl-5,6-dihydro-8H-[1,2,4]triazolo[4,3-a]pyrazin-7-yl)-thieno[2,3-d]pyrimidin-2-yloxy]-phenyl}-acetic acid] gave a Ki of 1.2 µM. Moreover, the IC50 at Human P2Y12 receptor is 0.23 µM.

`CCCc1cc2c(N3CCn4c(nnc4C(F)(F)F)C3)nc(Oc3ccc(CCC(=O)OC)cc3)nc2s1` [Example 3-41, 3-{4-[6-Propyl-4-(3-trifluoromethyl-5,6-dihydro-8H-[1,2,4]triazolo[4,3-a]pyrazin-7-yl)-thieno[2,3-d]pyrimidin-2-yloxy]-phenyl}-propionic acid methyl ester]: the Ki in experiment [1] turned out to be 1.5 µM. Also, at Human P2Y12 receptor, the IC50 stood at 0.39 µM.

`CCCc1cc2c(N3CCn4c(nnc4C(F)(F)F)C3)nc(Oc3ccc(CCC(=O)O)cc3)nc2s1` [Example 3-42, 3-{4-[6-Propyl-4-(3-trifluoromethyl-5,6-dihydro-8H-[1,2,4]triazolo[4,3-a]pyrazin-7-yl)-thieno[2,3-d]pyrimidin-2-yloxy]-phenyl}-propionic acid]: the Ki in experiment [1] was determined as 0.66 µM. At Human P2Y12 receptor, the IC50 is 0.25 µM.

In experiment [1], `CCCc1cc2c(N3CCn4c(nnc4C(F)(F)F)C3)nc(Oc3ccc(OCC(=O)OC)cc3)nc2s1` [Example 3-43, {4-[6-Propyl-4-(3-trifluoromethyl-5,6-dihydro-8H-[1,2,4]triazolo[4,3-a]pyrazin-7-yl)-thieno[2,3-d]pyrimidin-2-yloxy]-phenoxy}-acetic acid methyl ester] gave an inhibition constant (Ki) of over 4 µM. Besides, the IC50 on Human P2Y12 receptor was 0.65 µM.

With `CCCc1cc2c(N3CCn4c(nnc4C(F)(F)F)C3)nc(Oc3ccc(OCC(=O)O)cc3)nc2s1` [Example 3-44, {4-[6-Propyl-4-(3-trifluoromethyl-5,6-dihydro-8H-[1,2,4]triazolo[4,3-a]pyrazin-7-yl)-thieno[2,3-d]pyrimidin-2-yloxy]-phenoxy}-acetic acid], the Ki in experiment [1] was determined as 0.5 µM. Also, the IC50 at Human P2Y12 receptor came to 0.18 µM.

`CCCc1cc2c(N3CCn4c(nnc4C(F)(F)F)C3)nc(Oc3cccc(N4CCNCC4)c3)nc2s1` [Example 3-45, 7-[2-(3-piperazin-1-yl-phenoxy)-6-propyl-thieno[2,3-d]pyrimidin-4-yl]-3-trifluoromethyl-5,6,7,8-tetrahydro-[1,2,4]triazolo[4,3-a]pyrazine]: the Ki in experiment [1] was over 4 µM. Also, the IC50 on Human P2Y12 receptor worked out at 1.9 µM.

As a reminder, the Ki is the equilibrium dissociation constant of an inhibitor or competing ligand from its target. A lower Ki goes with tighter binding. In general, IC50 refers to the concentration that inhibits the measured activity by half.
